The source of these data is patent US10059701B2 (Merck Patent GmbH, priority 2015, dated 2018).

In assay [1] the target is T1, IRAK1 (Homo sapiens, UniProt P51617).
T1 construct: His-TEV-IRAK1 (194-712); His (N); TEV cleavage site (N)
In words: IRAK1 enzymatic assay (ADP-Glo luminescence). Format: biochemical. The note with it: purified human recombinant His-TEV-IRAK1 (194-712). The method in brief:
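Luminescent ADP-Glo read-out of ATP turnover by purified His-TEV-IRAK1 (194-712) at 0.3 μg/ml after a 2-hour RT reaction. Compounds, serially diluted from 10 μM to 0.5 nM, were preincubated with enzyme 15 minutes in Hepes pH 7.0 buffer with MgCl2, DTT, EGTA and Triton X-100.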

Assay [2] concerns the target T2, IRAK4 (Homo sapiens, UniProt Q9NWZ3).
T2 construct: His-TEV-IRAK4 (1-460); His (N); TEV cleavage site (N)
T2 sequence (Q9NWZ3 1-460): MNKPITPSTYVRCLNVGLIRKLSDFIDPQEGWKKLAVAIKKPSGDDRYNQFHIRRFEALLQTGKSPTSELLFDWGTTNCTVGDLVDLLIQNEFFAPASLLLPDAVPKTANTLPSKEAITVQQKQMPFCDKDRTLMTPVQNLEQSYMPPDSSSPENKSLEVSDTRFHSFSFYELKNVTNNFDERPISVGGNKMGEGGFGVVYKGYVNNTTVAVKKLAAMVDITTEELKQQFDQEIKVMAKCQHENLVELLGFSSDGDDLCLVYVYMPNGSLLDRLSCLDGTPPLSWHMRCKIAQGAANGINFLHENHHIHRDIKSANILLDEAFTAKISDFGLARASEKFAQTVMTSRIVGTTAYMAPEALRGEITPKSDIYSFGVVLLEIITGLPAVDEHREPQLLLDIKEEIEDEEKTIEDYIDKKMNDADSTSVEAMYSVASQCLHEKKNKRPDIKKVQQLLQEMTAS
Nature of the assay: IRAK4 enzymatic assay (ADP-Glo luminescence). It counts as biochemical. The note with it: purified human recombinant His-TEV-IRAK4 (1-460), ATP 2 μM. In outline:
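ADP-Glo luminescence read-out after a 2 h RT kinase reaction with 2 μM ATP and 300 nM biotinylated STK1 peptide. Enzyme (His-TEV-IRAK4 1-460, 0.3 μg/ml) first incubated 15 min with serially diluted compounds (10 μM–0.5 nM) in 50 mM Hepes pH 7.0, 10 mM MgCl2, 5 mM MnCl2.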
Background: In ADP-Glo the light output rises with the ADP produced.

T1 sequence (P51617 194-712): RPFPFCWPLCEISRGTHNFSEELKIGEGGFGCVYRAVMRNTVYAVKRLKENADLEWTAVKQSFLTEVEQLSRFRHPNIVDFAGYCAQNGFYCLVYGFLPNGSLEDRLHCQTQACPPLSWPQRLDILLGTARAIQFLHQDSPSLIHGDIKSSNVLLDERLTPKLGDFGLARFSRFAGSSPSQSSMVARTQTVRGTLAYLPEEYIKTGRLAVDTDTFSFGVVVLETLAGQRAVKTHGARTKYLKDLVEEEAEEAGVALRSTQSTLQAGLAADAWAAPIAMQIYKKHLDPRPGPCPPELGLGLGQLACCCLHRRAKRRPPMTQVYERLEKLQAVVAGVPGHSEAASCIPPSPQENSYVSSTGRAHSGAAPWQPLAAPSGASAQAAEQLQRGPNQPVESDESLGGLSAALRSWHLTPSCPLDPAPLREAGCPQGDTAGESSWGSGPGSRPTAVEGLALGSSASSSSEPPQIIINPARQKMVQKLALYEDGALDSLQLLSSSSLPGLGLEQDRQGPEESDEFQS

Broadly, the IC50 is the concentration that gives 50% inhibition. As to `CS(=O)(=O)c1cccc(C(=O)/N=c2\[nH]c3cc(N4CCOCC4=O)ccc3n2[C@H]2CC[C@@H](O)CC2)c1` [Compound 54, cis-(E)-N-(1-(4-hydroxycyclohexyl)-5-(3-oxomorpholino)-1H-benzo[d]imidazol-2(3H)-ylidene)-3-(methylsulfonyl)benzamide], the IC50 in assay [1] and in assay [2] was at most 100 nM in each case.
Consider `N#Cc1cccc(C(=O)/N=c2\[nH]c3cc(N4CCOCC4=O)ccc3n2[C@H]2CC[C@@H](O)CC2)c1` [Compound 55, cis-(E)-3-cyano-N-(1-(4-hydroxycyclohexyl)-5-(3-oxomorpholino)-1H-benzo[d]imidazol-2(3H)-ylidene)benzamide], for which the half-maximal inhibitory concentration (IC50) in assay [1] and in assay [2] was at most 100 nM in each case.
`O=C(/N=c1\[nH]c2cc(N3CCOCC3=O)ccc2n1[C@H]1CC[C@@H](O)CC1)c1cccc(C(F)F)c1` [Compound 56, cis-(E)-3-(difluoromethyl)-N-(1-(4-hydroxycyclohexyl)-5-(3-oxomorpholino)-1H-benzo[d]imidazol-2(3H)-ylidene)benzamide]: the 50% inhibitory concentration (IC50) in assay [1] and in assay [2] was at most 100 nM in each case.
For `O=C(/N=c1\[nH]c2cc(N3CCOCC3=O)ccc2n1[C@H]1CC[C@@H](O)CC1)c1cccc(C(F)(F)F)c1` [Compound 57, cis-(E)-N-(1-(4-hydroxycyclohexyl)-5-(3-oxomorpholino)-1H-benzo[d]imidazol-2(3H)-ylidene)-3-(trifluoromethyl)benzamide], the half-maximal inhibitory concentration (IC50) in assay [1] and in assay [2] was at most 100 nM each time.
`N#Cc1cccc(C(=O)/N=c2\[nH]c3cc(N4CCCOC4=O)ccc3n2CCCO)c1` [Compound 58, (E)-3-cyano-N-(1-(3-hydroxypropyl)-5-(2-oxo-1,3-oxazinan-3-yl)-1H-benzo[d]imidazol-2(3H)-ylidene)benzamide]: the IC50 in assay [1] and in assay [2] was at most 100 nM in each case.
`Cn1nc(C(=O)/N=c2\[nH]c3cc(N4CCOCC4=O)ccc3n2CCCO)c2ccccc21` [Compound 60, (E)-N-(1-(3-hydroxypropyl)-5-(3-oxomorpholino)-1H-benzo[d]imidazol-2(3H)-ylidene)-1-methyl-1H-indazole-3-carboxamide]: the IC50 in assay [1] and in assay [2] was over 1000 nM throughout.
For the compound `CSCCn1/c(=N/C(=O)c2cccc(C(F)F)c2)[nH]c2cc(N3CCOCC3=O)ccc21` [Compound 63, (E)-3-(difluoromethyl)-N-(1-(2-(methylthio)ethyl)-5-(3-oxomorpholino)-1H-benzo[d]imidazol-2(3H)-ylidene)benzamide], the figures for the concentration for half-maximal inhibition (IC50) in assay [1] and in assay [2] were 100 to 1000 nM and at most 100 nM, respectively.
For `COc1cc2c(cc1N1CCOCC1=O)[nH]/c(=N\C(=O)c1cccc(CO)c1)n2CCCO` [Compound 64, (E)-3-(hydroxymethyl)-N-(1-(3-hydroxypropyl)-6-methoxy-5-(3-oxomorpholino)-1H-benzo[d]imidazol-2(3H)-ylidene)benzamide], in that order: 100 to 1000 nM and at most 100 nM.
With `C[C@H](CCO)n1/c(=N/C(=O)c2cccc(OC(F)F)c2)[nH]c2cc(N3CCOCC3=O)ccc21` [Compound 65, (R,E)-3-(difluoromethoxy)-N-(1-(4-hydroxybutan-2-yl)-5-(3-oxomorpholino)-1H-benzo[d]imidazol-2(3H)-ylidene)benzamide], the IC50 in assay [1] and in assay [2] was at most 100 nM in each case.
As to `O=C(/N=c1\[nH]c2cc(N3CCOCC3=O)ccc2n1CC1(CO)CC1)c1cccc(OC(F)F)c1` [Compound 66, (E)-3-(difluoromethoxy)-N-(1-((1-(hydroxymethyl)cyclopropyl)methyl)-5-(3-oxomorpholino)-1H-benzo[d]imidazol-2(3H)-ylidene)benzamide], the IC50 in assay [1] is 100 to 1000 nM; in assay [2], at most 100 nM.
Consider `Cc1cc2c(cc1N1CCOCC1=O)[nH]/c(=N\C(=O)c1cc(F)cc(C(F)(F)F)c1)n2CCCO` [Compound 67, (E)-3-fluoro-N-(1-(3-hydroxypropyl)-6-methyl-5-(3-oxomorpholino)-1H-benzo[d]imidazol-2(3H)-ylidene)-5-(trifluoromethyl)benzamide], for which the half-inhibitory concentration (IC50) in assay [1] and in assay [2] was at most 100 nM throughout.
In the case of `Cc1cc2c(cc1N1CCOCC1=O)[nH]/c(=N\C(=O)c1cccc(C#N)c1)n2CCCO` [Compound 68, (E)-3-cyano-N-(1-(3-hydroxypropyl)-6-methyl-5-(3-oxomorpholino)-1H-benzo[d]imidazol-2(3H)-ylidene)benzamide], the 50% inhibitory concentration (IC50) in assay [1] was 100 to 1000 nM; in assay [2] it was at most 100 nM.
For the compound `Cc1cc2c(cc1N1CCOCC1=O)[nH]/c(=N\C(=O)c1cccc(C(F)F)c1)n2CCCO` [Compound 69, (E)-3-(difluoromethyl)-N-(1-(3-hydroxypropyl)-6-methyl-5-(3-oxomorpholino)-1H-benzo[d]imidazol-2(3H)-ylidene)benzamide], the IC50 in assay [1] and in assay [2] was at most 100 nM in each case.
`Cc1cc2c(cc1N1CCOCC1=O)[nH]/c(=N\C(=O)c1cccc(C(F)(F)F)c1)n2CCCO` [Compound 70, (E)-N-(1-(3-hydroxypropyl)-6-methyl-5-(3-oxomorpholino)-1H-benzo[d]imidazol-2(3H)-ylidene)-3-(trifluoromethyl)benzamide]: the values for the IC50 in assay [1] and in assay [2] were 100 to 1000 nM and at most 100 nM, respectively.
Regarding `O=C(/N=c1\[nH]c2cc(N3CCOCC3=O)ccc2n1CCCO)c1cnccn1` [Compound 72, (E)-N-(1-(3-hydroxypropyl)-5-(3-oxomorpholino)-1H-benzo[d]imidazol-2(3H)-ylidene)pyrazine-2-carboxamide], the IC50 in assay [1] and in assay [2] was over 1000 nM in each case.
For the compound `COc1cc2c(cc1N1CCOCC1=O)[nH]/c(=N\C(=O)c1cc(F)cc(C(F)(F)F)c1)n2CCCO` [Compound 73, (E)-3-fluoro-N-(1-(3-hydroxypropyl)-6-methoxy-5-(3-oxomorpholino)-1H-benzo[d]imidazol-2(3H)-ylidene)-5-(trifluoromethyl)benzamide], the IC50 in assay [1] and in assay [2] was at most 100 nM in each case.
`COc1cc2c(cc1N1CCOCC1=O)[nH]/c(=N\C(=O)c1cccc(C#N)c1)n2CCCO` [Compound 74, (E)-3-cyano-N-(1-(3-hydroxypropyl)-6-methoxy-5-(3-oxomorpholino)-1H-benzo[d]imidazol-2(3H)-ylidene)benzamide]: the concentration for half-maximal inhibition (IC50) in assay [1] and in assay [2] was at most 100 nM in each case.
For the compound `COc1cc2c(cc1N1CCOCC1=O)[nH]/c(=N\C(=O)c1cccc(C(F)F)c1)n2CCCO` [Compound 75, (E)-3-(difluoromethyl)-N-(1-(3-hydroxypropyl)-6-methoxy-5-(3-oxomorpholino)-1H-benzo[d]imidazol-2(3H)-ylidene)benzamide], the half-maximal inhibitory concentration (IC50) in assay [1] and in assay [2] was at most 100 nM throughout.
Regarding `COc1cc2c(cc1N1CCOCC1=O)[nH]/c(=N\C(=O)c1cccc(C(F)(F)F)c1)n2CCCO` [Compound 76, (E)-N-(1-(3-hydroxypropyl)-6-methoxy-5-(3-oxomorpholino)-1H-benzo[d]imidazol-2(3H)-ylidene)-3-(trifluoromethyl)benzamide], the half-inhibitory concentration (IC50) in assay [1] and in assay [2] was at most 100 nM throughout.
As to `O=C(/N=c1\[nH]c2cc(N3CCOCC3=O)ccc2n1CCCO)c1cccnc1` [Compound 77, (E)-N-(1-(3-hydroxypropyl)-5-(3-oxomorpholino)-1H-benzo[d]imidazol-2(3H)-ylidene)nicotinamide], the IC50 in assay [1] was 100 to 1000 nM; in assay [2] it was at most 100 nM.
Consider `Cc1ccc(C(=O)/N=c2\[nH]c3cc(N4CCOCC4=O)ccc3n2CCCO)cc1C(F)(F)F` [Compound 78, (E)-N-(1-(3-hydroxypropyl)-5-(3-oxomorpholino)-1H-benzo[d]imidazol-2(3H)-ylidene)-4-methyl-3-(trifluoromethyl)benzamide], for which the figures for the half-inhibitory concentration (IC50) in assay [1] and in assay [2] were over 1000 nM and at most 100 nM, respectively.
On to `O=C(/N=c1\[nH]c2cc(N3CCOCC3=O)ccc2n1CCCO)c1cccc(C(F)F)c1` [Compound 79, (E)-3-(difluoromethyl)-N-(1-(3-hydroxypropyl)-5-(3-oxomorpholino)-1H-benzo[d]imidazol-2(3H)-ylidene)benzamide], for which the half-maximal inhibitory concentration (IC50) in assay [1] and in assay [2] was at most 100 nM throughout.
Take `O=C(/N=c1\[nH]c2cc(N3CCOCC3=O)ccc2n1C1CCS(=O)(=O)CC1)c1cccc(C(F)F)c1` [Compound 80, (E)-3-(difluoromethyl)-N-(1-(1,1-dioxidotetrahydro-2H-thiopyran-4-yl)-5-(3-oxomorpholino)-1H-benzo[d]imidazol-2(3H)-ylidene)benzamide]: the IC50 in assay [1] and in assay [2] was at most 100 nM in each case.
